Results from ChEMBL document CHEMBL1201862, “PubChem BioAssay data set” (2004).
Active and inactive are the calls of the source.

How the values were obtained:
[1] = molecular target: T1, COUP transcription factor 2 (Homo sapiens, UniProt P24468); assay: Luminescence-based cell-based high throughput dose response assay to identify inhibitors of COUP-TFII (NR2F2).; type: functional;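 further: HEK293 cells transiently cotransfected with COUP-TFII expression vector and reporter; luciferase reporter luminescence driven by COUP-TFII from the pX2-168 reporter plasmid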
T1 sequence (P24468 whole entry): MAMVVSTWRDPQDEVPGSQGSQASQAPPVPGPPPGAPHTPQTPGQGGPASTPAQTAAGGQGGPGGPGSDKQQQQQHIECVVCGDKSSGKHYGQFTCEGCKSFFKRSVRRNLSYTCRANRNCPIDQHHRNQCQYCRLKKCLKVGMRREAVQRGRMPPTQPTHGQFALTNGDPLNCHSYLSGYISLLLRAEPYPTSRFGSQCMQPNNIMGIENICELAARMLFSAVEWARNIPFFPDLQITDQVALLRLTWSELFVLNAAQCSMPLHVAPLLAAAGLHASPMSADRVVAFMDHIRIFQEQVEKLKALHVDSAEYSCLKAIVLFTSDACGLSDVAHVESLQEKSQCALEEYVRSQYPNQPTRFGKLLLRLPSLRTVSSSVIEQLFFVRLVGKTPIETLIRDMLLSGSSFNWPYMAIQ

Protein Wnt-3a = Protein Wnt-3a (Mus musculus, UniProt P27467); assay: Wnt3a-driven reporter signaling inhibition, dose response, selectivity assay for Gli-SUFU antagonist project, Wnt-LIGHT cells, luminescence (AID 651570); type: functional; details: read-out: IC50_Mean;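 further: Wnt-LIGHT reporter cells stimulated with conditioned medium from Wnt3a-producing cells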
[2] = C. albicans growth with fluconazole, confirmation, fluorescence, retest (AID 2467); type: functional, cell-based
[3] = NIH-3T3 fibroblast cytotoxicity, dose response, cytotoxicity control, cell-based, fluorescence, Alamar Blue, secondary assay (AID 2327); type: functional;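 further: NIH-3T3 mouse fibroblasts cultured with fluconazole at 8 µg/mL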
Steroidogenic factor 1 = Steroidogenic factor 1 (Homo sapiens, UniProt Q13285); assay: Counterscreen for inverse agonists of the liver receptor homolog-1 (LRH-1; NR5A2): Luminescence-based cell-based high throughput dose response assay to identify inverse agonists of the Steroidogenic Factor 1 Nuclear Receptor (SF1; NR5A1).; type: functional
[4] = StAR promoter reporter inhibition counter-screen, dose response, counter-screen for LRH-1 inverse agonist project, cell-based, luminescence, luciferase reporter (AID 651969); type: functional
[5] = molecular target: Nuclear receptor subfamily 5 group A member 2 (Homo sapiens, UniProt O00482); type: functional, cell-based;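 further: HEK293T cells transfected with LRH-1 and a StAR promoter luciferase reporter; potency for inhibitors that lower LRH-1 driven reporter light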
[6] = ARNT/TACC3 interaction disruptors, potency, confirmation, biochemical, AlphaScreen, cherry-picked samples (AID 651703); type: functional, Homo sapiens;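 further: His-tagged ARNT PAS-B domain paired with GST-TACC3 E629A dimer coactivator fragment; potency of inhibitors that break up the complex and lower AlphaScreen signal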
[7] = molecular target: 5-hydroxytryptamine receptor 2A (Mus musculus, UniProt P35363); type: functional, cell-based;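 further: CHO-K1 cells with tagged receptor and beta-arrestin; agonist potency measured as compound-induced activation of the receptor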
Mu-type opioid receptor = Mu-type opioid receptor (Homo sapiens, UniProt P35372); type: functional, cell-based;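 further: U2OS cells with beta-arrestin recruitment to OPRM1 by beta-gal complementation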
[8] = Fluorescence-based cell-based high throughput dose response assay for inhibitors of the interaction of nucleotide-binding oligomerization domain containing 2 (NOD2) and the receptor-interacting serine-threonine kinase 2 (RIPK2).; type: functional; details: Homo sapiens
[9] = growth suppression of beta-catenin-knockout colon cells, dose response, cell-based, HCT116, human colon tumor (AID 1045); type: functional;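 further: HCT116 colon tumor cells with beta catenin knocked out; cells exposed to compound for 60 hours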
Beta Lactamase = Beta Lactamase (Pseudomonas aeruginosa, UniProt Q932Y6); assay: beta-lactamase reporter inhibitor potency, dose response, artefact control for NOD2-RIPK2 interaction inhibitor project, BLA reporter cells, FRET fluorescence (AID 651552); type: functional, cell-based
[10] = molecular target: G-protein coupled receptor 55 (Homo sapiens, UniProt Q9Y2T6); assay: GPR55 agonists via beta-arrestin recruitment, primary screen, imaging, U2OS cells, beta-arrestin-GFP redistribution (AID 1961); type: functional
Vero = assay: cells; type: functional; details: Chlorocebus sabaeus
[11] = growth suppression of PTEN-null colon cells, dose response, cell-based, HCT116 PTEN knockout (AID 1047); type: functional;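 further: HCT116 colon tumor cells with PTEN knocked out; cells exposed to compound for 60 hours before readout; potency for loss of cell viability measured by luminescence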
[12] = molecular target: Low molecular weight phosphotyrosine protein phosphatase (Homo sapiens, UniProt P24666); type: functional; details: read-out: IC50_Mean
[13] = molecular target: T2, Carboxy-terminal domain RNA polymerase II polypeptide A small phosphatase 1 (Homo sapiens, UniProt Q9GZU7); assay: inhibitors of CTDSP1, concentration-response testing, biochemical assay, absorbance-based, actives from ultra-high-throughput screening (AID 540297); type: functional
T2 sequence (Q9GZU7 whole entry): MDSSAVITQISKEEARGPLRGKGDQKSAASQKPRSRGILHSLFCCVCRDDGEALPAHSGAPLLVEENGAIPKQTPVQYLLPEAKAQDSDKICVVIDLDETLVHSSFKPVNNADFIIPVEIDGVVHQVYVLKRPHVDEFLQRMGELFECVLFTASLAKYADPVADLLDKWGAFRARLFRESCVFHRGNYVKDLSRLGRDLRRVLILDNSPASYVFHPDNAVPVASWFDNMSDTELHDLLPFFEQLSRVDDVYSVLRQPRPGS

Beta-lactamase [14] = molecular target: T3, Beta-lactamase (Pseudomonas aeruginosa, UniProt Q79MP6); assay: […] counterscreen for selective VIM-2 inhibitors: dose response biochemical high throughput screening assay to identify inhibitors of IMP-1 metallo-beta-lactamase.
Beta-lactamase [15] = molecular target: Beta-lactamase (Salmonella choleraesuis (strain SC-B67), UniProt Q5J463); assay: Epi-absorbance-based counterscreen for selective VIM-2 inhibitors: dose response biochemical high throughput screening assay to identify inhibitors of TEM-1 serine-beta-lactamase.
Beta-lactamase [16] = molecular target: T3, Beta-lactamase; assay: IMP-1 metallo-beta-lactamase inhibitors, dose response, selectivity assay for VIM-2 inhibitor project, biochemical, epi-absorbance (AID 1920)
[17] = molecular target: Mitochondrial peptide methionine sulfoxide reductase (Bos taurus, UniProt P54149); type: functional;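 further: absorbance read-out, biochemical high-throughput dose-response screen for MsrA inhibitors, confirmatory; recombinant bovine MsrA coupled to E. coli TrxB with NADPH and selenocystamine; potency is for inhibitors of MsrA activity on DMSO substrate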
Mitochondrial peptide methionine sulfoxide reductase, sequence (P54149 whole entry): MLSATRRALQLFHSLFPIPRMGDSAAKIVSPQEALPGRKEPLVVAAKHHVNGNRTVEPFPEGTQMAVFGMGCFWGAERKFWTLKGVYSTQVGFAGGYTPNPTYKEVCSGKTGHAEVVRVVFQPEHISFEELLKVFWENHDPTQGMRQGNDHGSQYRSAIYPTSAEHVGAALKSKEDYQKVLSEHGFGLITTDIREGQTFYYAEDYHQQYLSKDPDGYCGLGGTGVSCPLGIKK

T3 sequence (Q79MP6 whole entry): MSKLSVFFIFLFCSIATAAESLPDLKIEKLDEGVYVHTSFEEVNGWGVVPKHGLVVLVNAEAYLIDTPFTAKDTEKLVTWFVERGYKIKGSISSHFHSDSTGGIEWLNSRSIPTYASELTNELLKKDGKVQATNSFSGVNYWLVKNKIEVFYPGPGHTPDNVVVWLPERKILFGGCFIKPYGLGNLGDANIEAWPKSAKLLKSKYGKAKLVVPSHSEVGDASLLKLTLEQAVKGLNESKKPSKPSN
Protein Wnt-3a, sequence (P27467 whole entry): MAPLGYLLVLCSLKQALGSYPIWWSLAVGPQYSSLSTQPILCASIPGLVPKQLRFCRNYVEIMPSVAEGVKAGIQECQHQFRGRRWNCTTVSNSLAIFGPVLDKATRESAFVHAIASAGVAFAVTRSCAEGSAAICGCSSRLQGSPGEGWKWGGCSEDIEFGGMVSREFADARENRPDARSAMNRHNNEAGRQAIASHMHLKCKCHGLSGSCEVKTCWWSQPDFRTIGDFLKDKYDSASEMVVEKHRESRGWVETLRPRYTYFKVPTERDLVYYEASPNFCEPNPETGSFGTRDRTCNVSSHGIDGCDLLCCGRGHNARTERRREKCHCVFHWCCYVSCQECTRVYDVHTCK
Beta Lactamase, sequence (Q932Y6 whole entry): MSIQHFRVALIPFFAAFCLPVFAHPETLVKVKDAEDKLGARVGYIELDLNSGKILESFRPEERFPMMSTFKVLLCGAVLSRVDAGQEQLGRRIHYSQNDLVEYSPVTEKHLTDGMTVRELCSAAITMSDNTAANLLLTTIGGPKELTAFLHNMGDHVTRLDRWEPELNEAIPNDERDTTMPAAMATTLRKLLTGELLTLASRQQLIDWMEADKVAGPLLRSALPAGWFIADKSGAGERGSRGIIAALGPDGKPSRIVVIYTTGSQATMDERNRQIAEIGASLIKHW
Mu-type opioid receptor, sequence (P35372 whole entry, the tested form may be a part): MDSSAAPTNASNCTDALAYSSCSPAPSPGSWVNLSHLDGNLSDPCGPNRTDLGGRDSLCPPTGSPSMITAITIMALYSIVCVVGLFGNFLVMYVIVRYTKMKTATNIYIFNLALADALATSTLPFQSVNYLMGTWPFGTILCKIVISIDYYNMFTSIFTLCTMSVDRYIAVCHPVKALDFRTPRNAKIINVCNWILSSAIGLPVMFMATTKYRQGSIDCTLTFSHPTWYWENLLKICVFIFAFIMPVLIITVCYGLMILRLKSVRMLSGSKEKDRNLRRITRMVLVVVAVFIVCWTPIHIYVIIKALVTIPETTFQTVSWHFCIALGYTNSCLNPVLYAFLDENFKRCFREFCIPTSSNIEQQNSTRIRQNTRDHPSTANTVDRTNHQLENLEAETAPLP
Low molecular weight phosphotyrosine protein phosphatase, sequence (P24666 whole entry, the tested form may be a part): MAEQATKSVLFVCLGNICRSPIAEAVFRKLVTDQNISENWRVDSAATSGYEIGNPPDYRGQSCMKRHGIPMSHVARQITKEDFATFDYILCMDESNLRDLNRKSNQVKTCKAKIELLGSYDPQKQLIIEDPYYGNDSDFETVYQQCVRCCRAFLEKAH
5-hydroxytryptamine receptor 2A, sequence (P35363 whole entry): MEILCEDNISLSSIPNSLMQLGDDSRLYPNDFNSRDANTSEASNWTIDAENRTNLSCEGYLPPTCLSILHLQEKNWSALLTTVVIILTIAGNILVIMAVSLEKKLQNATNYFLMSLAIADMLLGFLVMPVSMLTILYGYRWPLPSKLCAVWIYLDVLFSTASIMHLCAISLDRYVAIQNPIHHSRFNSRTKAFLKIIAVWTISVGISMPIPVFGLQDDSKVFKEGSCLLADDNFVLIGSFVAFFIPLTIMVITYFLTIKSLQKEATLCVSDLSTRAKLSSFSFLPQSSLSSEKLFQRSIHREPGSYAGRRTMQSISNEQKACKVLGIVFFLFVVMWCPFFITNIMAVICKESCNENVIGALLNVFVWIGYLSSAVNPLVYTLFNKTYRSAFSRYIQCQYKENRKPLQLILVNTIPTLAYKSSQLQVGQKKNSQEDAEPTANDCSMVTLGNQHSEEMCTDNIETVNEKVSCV
Beta-lactamase (Salmonella choleraesuis (strain SC-B67), UniProt Q5J463), sequence (Q5J463 whole entry): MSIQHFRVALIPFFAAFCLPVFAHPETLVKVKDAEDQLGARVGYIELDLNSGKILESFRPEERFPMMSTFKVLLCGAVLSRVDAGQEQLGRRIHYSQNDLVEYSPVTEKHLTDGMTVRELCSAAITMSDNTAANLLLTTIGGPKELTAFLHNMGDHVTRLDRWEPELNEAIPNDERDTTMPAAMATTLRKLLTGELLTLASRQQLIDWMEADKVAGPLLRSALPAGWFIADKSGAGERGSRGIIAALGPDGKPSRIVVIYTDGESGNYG
G-protein coupled receptor 55, sequence (Q9Y2T6 whole entry): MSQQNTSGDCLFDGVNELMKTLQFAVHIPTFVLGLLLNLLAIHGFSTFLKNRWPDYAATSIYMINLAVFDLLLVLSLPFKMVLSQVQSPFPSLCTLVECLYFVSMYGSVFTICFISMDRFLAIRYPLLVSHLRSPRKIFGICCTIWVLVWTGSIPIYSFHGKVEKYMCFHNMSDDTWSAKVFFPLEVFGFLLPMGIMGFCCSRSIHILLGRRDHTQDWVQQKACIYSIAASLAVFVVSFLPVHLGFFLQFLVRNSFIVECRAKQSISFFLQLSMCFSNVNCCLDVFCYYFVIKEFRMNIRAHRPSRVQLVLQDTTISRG
Nuclear receptor subfamily 5 group A member 2, sequence (O00482 whole entry, the tested form may be a part): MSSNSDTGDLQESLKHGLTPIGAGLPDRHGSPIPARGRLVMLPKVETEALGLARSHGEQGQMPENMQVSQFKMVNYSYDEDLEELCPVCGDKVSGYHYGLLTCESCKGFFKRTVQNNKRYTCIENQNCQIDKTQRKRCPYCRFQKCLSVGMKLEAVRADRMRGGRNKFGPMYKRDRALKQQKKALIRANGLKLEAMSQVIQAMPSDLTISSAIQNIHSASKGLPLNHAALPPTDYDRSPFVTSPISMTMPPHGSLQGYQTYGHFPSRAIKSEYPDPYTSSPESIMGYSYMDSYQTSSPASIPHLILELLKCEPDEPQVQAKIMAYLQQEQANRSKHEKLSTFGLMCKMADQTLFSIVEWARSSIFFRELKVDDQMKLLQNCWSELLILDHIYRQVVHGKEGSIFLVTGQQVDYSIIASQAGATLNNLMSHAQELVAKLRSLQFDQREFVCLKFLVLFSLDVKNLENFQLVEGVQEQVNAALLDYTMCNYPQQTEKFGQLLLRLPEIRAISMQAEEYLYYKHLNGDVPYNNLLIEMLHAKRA
Steroidogenic factor 1, sequence (Q13285 whole entry): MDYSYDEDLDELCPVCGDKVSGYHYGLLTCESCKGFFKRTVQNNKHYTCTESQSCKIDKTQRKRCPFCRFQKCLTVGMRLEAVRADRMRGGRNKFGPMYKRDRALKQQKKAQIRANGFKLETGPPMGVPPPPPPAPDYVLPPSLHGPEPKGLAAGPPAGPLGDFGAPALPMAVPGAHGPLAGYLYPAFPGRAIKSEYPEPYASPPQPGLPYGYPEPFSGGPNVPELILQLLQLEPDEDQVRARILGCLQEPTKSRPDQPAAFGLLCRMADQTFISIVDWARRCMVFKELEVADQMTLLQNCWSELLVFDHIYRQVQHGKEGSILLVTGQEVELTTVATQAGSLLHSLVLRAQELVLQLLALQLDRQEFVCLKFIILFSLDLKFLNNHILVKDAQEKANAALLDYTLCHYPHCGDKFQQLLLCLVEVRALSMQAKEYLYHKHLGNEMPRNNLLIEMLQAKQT

In the case of Cc1nn(C)c(C)c1/C=C/C(=O)c1ccc(Cl)cc1Cl, the IC50 [1] is reported as 14.8 µM (inactive), the IC50 (Protein Wnt-3a) is reported as 2.49 µM (active) and the EC50 [2] is reported as 3.56 µM (active). The EC50 [3] was 84.9 µM (inconclusive).
With N=c1sccn1CC(=O)Nc1ccc(S(N)(=O)=O)cc1 the IC50 (Steroidogenic factor 1) was 3.81 µM (active), the IC50 [4] was 35.9 µM (inactive) and the IC50 [5] was 2.32 µM (active).
For Cc1cccc(NC(=O)C(C)N2CC=C(c3ccccc3)CC2)c1 (configuration not stated), the AC50 [6] was 88.4 µM (active).
For OC(COc1ccc2cc(Br)ccc2c1)CN1CCN(c2ccccn2)CC1 (configuration not stated), the EC50 [7] was 0.903 µM (active) and the EC50 (Mu-type opioid receptor) was 92.5 µM (inactive).
In the case of N#Cc1ccccc1Cn1cc(/C=C/[N+](=O)[O-])c2ccccc21, the IC50 [8] is reported as 10.3 µM (inactive), the EC50 [9] is reported as 18 µM (active) and the IC50 (Beta Lactamase) is reported as 24.4 µM (inactive). The EC50 [10] was 3.11 µM (active), the CC50 (Vero) was 8.92 µM (active) and the EC50 [11] was 17.8 µM (active).
With O=C(Nc1nc2ccsc2c(=O)s1)c1ccc(Cl)cc1 the IC50 [12] was 39.3 µM (inactive) and the IC50 [13] was 5.43 µM (active).
For O=C(O)c1ccccc1C(=O)c1cccc2ccccc12, the IC50 (Beta-lactamase [14]) was > 59.6 µM (inactive), the IC50 (Beta-lactamase [15]) was > 59.6 µM (inactive) and the IC50 (Beta-lactamase [16]) was > 59.6 µM (inactive).
For O=C(C(=O)c1ccc(O)c(O)c1)c1ccc(O)c(O)c1, the IC50 [17] was 112 µM (inactive).
